From US20190298664A1, “METHOD AND KIT FOR MYOCARDIAL REPERFUSION, AND METHOD FOR ATTENUATING OR REDUCING MYOCARDIAL REPERFUSION INJURY” (Academia Sinica, priority 2018, published 2019) come the findings set out here.

The structures appear in SMILES notation. Like-named read-outs stand apart in the source and are kept apart here.

In one test the test system is myocardial PTP activity. In words: Overall myocardial PTP activity by pNPP assay in heart extracts of I/R mice. Type of test: in vivo, mouse. To be noted: 2 mg/kg IP ten min before reperfusion; four hours post-I/R. Here is the method: We anesthetized the mouse with 5% isoflurane mixed with room air until loss of sensation of pain and then maintained the mouse in anesthesia status with 2% isoflurane mixed with room air through the whole procedure. The mouse's body temperature was maintained at 37° C. by a heating pad. After the mouse was intubated, we provided artificial ventilation to the mouse with a small animal ventilator. Then the chest cavity was opened at the second intercostal space and homemade chest retractors were utilized to widen the incision. We pulled the pericardium apart carefully and exposed the left anterior descending artery (LAD). A 7-0 silk was put underneath the LAD at the position of the tip of the left auricle, a 6 mm length of PE-10 tube was put on the surface of the LAD, and then a double knot was made to occlude the blood flow of LAD. The success of ligation was confirmed by […] anterior wall of the LV. For the reperfusion group, the LAD knot would be untied for the purpose of reperfusion after 1 hour of ischemia. For the sham operation group, all procedures were the same except for the knot that occluded the LAD flow. […] The released p-nitrophenolate ion is measured by spectrophotometry reading the absorbance at 405 nm. […]

Test [1] concerns the target T1, PTP-PEST catalytic domain (Homo sapiens, UniProt Q05209).
T1 construct: PTP PEST Catalytic Domain construct (Amino Acid:1-300) with 6 His tag at N-terminal; 6 His (N, cleaved yes); made in house; host or cells: Sf9 insect cells (Sf9-VECL-01), Bac-to-Bac baculovirus system
T1 sequence (Q05209 1-300): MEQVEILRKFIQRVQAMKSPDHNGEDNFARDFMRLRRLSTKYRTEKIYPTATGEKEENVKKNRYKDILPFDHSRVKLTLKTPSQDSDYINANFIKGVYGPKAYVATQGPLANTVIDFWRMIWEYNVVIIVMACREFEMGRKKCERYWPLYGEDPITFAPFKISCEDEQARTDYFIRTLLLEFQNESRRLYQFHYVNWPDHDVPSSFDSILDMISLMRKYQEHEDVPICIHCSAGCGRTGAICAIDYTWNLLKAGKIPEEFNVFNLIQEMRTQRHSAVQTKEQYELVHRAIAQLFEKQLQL
In words: IC50 kinetic assay: phosphatase activity of purified PTP-PEST catalytic domain with phospho-Paxillin peptide substrate. Type of test: biochemical. Here is the method:
PTP PEST Catalytic Domain construct (Amino Acid:1-300) with 6 His tag at N-terminal were expressed in insect cell Sf9-VECL-01 Cell line, using Bac-to-Bac Baculovirus expression system. Cells were infected with baculovirus at 27° C. and harvested after 65 hours of infection. Post harvesting cell suspension were centrifuged and pellet was stored at -80° C. To purify the protein, pellet was thawed and then dissolved in lysis buffer containing 50 mM Tris-HCl, 500 mM NaCl, 5% Glycerol, pH-7.5, and protease inhibitor cocktail tablet, EDTA free from Roche. Cell were lysed by TS-series cell disrupter (Constant System Ltd.) then lysate was centrifuged at 20000 RPM for 30 minutes at 4° C. using JA25.5 rotor in an Avanti J-26-XPI Centrifuge. […] After SEC purity of the protein was analyzed by SDS page and quantification was carried out by using NanoDrop Spectrophotometer. […] The absorbance of the reaction was measured at 650 nm by using Tecan Infinite […] instrument. The absorbance value was converted to amount of phosphate produced in reaction based on the standard curve generated from known phosphate concentration. Data generated in the reaction was fitted using nonlinear regression mode and IC50 value were calculated based on the equation function “Log(inhibitor) vs response-variable slope” from Graph Pad Prism 5.0.

A further test deals with T2, PTP-PEST (Homo sapiens, UniProt Q05209).
T2 construct: PTP PEST Catalytic Domain construct (Amino Acid:1-300) with 6 His tag at N-terminal; 6 His (N, cleaved yes); made in house; host or cells: Sf9 insect cells (Sf9-VECL-01), Bac-to-Bac baculovirus system
T2 sequence (Q05209 1-300): T1 sequence (Q05209 1-300)
In words: Thermal stability of PTP-PEST by differential scanning fluorimetry and differential scanning calorimetry. To be noted: in the presence of Auranofin; apo form shows a single unfolding event. On the technique in general: Differential scanning fluorimetry follows unfolding on heating by fluorescence.

For `CC(=O)OC[C@H]1O[C@@H]([S-])[C@H](OC(C)=O)[C@@H](OC(C)=O)[C@@H]1OC(C)=O.CCP(CC)CC.[Au+]` [Auranofin, auranofin], in the test on myocardial PTP activity, the “Overall myocardial PTP activity” value is “significantly suppressed”. For the same molecule, the IC50 was 38.7 µM in test [1] (read-out: IC50 of the auranofin to the PTP-PEST, as restated in the summary) and 38.7 µM in test [1] (synthetic phospho-Paxillin peptide as substrate, 25 nM protein, 50 μM peptide, 30° C., 30 min, read-out: IC50 on enzymatic activity of purified PTP-PEST). Moreover, at PTP-PEST, the “Unfolding events of PTP-PEST (DSF and DSC)” value is given as “two unfolding events”.

For orientation: IC50 means the concentration needed to halve the response being measured.
